In series [1] the test system is patient leukemic cells (AML samples). In words: cells. Type of series: cell-based. As for the experimental part: (§1) After informed consent bone marrow and peripheral blood cells were obtained at diagnosis from 6 pediatric AML patients aged 0-18 years. The diagnosis is assessed by cytomorphology using FAB classification and immunophenotyping (Bennett J M et al., Br. J. Haematol. 33: 451-458, 1976). Mononuclear cells (MNC) are separated by Lymphoprep (Nycomed, Oslo, Norway) density gradients and cryopreserved in liquid nitrogen until use. Cryopreserved AML cells are thawed rapidly at 37° C., diluted in a 5× volume of normal calf serum (NCS) as described by Dokter W H et al., Leukemia 9: 425-432, 1995. The remaining pellet is T-cell depleted by sheep red blood cells and separated over lymphoprep density gradient. Remaining blast cell population contained more than 95% AML cells, hereafter referred to as AML cells and cultured in RPMI-1640 supplemented with penicillin/streptomycin and 10% fetal bovine serum.
For the leukemic samples (10,000 cells/well) of the patients a 3-day cell culture is used. […] The optical density (OD) is linearly related to the number of viable cells. Control wells contain leukemic cells only with culture media without drugs, and blank wells contain culture media only. […] The LC50 value (drug concentration needed to kill 50% of the leukemic cells) is used to compare the differences between patients and/or various drug combinations. LC50 value equation: ([% leukemic cell survival >50%]−50)/([% leukemic cell survival >50%]−[% leukemic cell survival <50%])×(drug concentration when leukemic cell survival <50%−drug concentration when leukemic cell survival >50%)+(drug concentration when leukemic cell survival >50%).

For series [2], the system named is TF-1 cells. In words: Survival assay, viable cells counted by trypan blue exclusion after 24 hours. The format is cell-based. The protocol:
The cell lines HL-60, TF-1, K562 and U937 are obtained from American Type Culture Collection (Manassas, Va., USA) and cultured in RPMI-1640 (Roswell Park Memorial Institute) supplemented with penicillin/streptomycin and 10% fetal bovine serum (FBS, Hyclone, Logan, Utah, USA) for U937, K562 and HL-60 cells and supplemented with GM-CSF 1 ng/mL for TF-1 cells.
(§2) Before incubation with recombinant (rec) VEGF165 (Sigma, St. Louis, […].) and/or PTK787, AML cells and/or cell lines are serum starved for 4 hours in serum free medium (X-vivo 10, Biowhitaker, Brussels, Belgium). For proliferation experiments, cells are cultured in six-well plates (Corning-Costar Corp., Cambridge, Mass., USA), at a cell density of 1×10^5 cells per well in serum free medium (X-vivo-10) for 24 hours. Cells are treated (rec VEGF165 5-100 ng/mL) or untreated (media alone) and are cultured in the presence or absence of PTK787 (5-100 nM). After 24 hours viable cells (determined by trypan blue exclusion) are counted in triplicate using a hemocytometer. Each experiment is done in triplicate, and experiments with leukemic cell lines are repeated three times.

Series [3] deals with TF-1 cells. As to the kind of experiment: Apoptosis shown by PI DNA labeling (cell cycle analysis). The format is cell-based. The settings on record: dose-dependent, overnight culture, 5% in control wells. The protocol: Cells are washed with PBS and resuspended in 75% ethanol in PBS and kept at 4° C. for at least 30 minutes. Prior to analysis, cells are washed with PBS, resuspended and incubated for 30 minutes in 1 mg/mL RNase A in PBS and thereafter incubated in staining solution containing 0.05 mg/mL propidium iodide (Sigma), 1 mM EDTA and 0.1% Triton-X-100. The suspension is then passed through a nylon mesh filter and analyzed on Becton Dickinson FACScan.

For another series, the system named is HL-60 cells. In words: Total cell kill assay (MTT), leukemic cell line. Type of series: cell-based. Particulars: PTK787 in different concentrations. The protocol: (§3) In vitro cellular drug resistance of leukemic HL-60 and TF-1 cells (10,000 cells/well) are assessed using a 2-day cell culture assay based on the principle that only viable cells are able to reduce 3-(4,5-dimethyl-2-thiazolyl)-2,5-diphenyl-tetrazolium bromide (MTT) (5 mg/mL in PBS added to each well for 4 hours) to a colored formazan product, measured spectrophotometrically at 520 nm. For the leukemic samples (10,000 cells/well) of the patients a 3-day cell culture is used. […] The optical density (OD) is linearly related to the number of viable cells. Control wells contain leukemic cells only with culture media without drugs, and blank wells contain culture media only. Percentage of cell survival is calculated at each drug concentration by the equation (mean OD treated wells/mean OD control wells)×100% after correction for the background found in the blank wells. The results are considered evaluable when the control wells still contain 70% or more leukemic cells (determined by MGG staining) after a 3-day culture period. The mean OD of the control wells after correction for the background at 3 days always exceeds 0.1 arbitrary units for valid results. The LC50 value (drug concentration needed to kill 50% of the leukemic cells) is used to compare the differences between patients and/or various drug combinations. […]

Series [4] has as its system TF-1 cells. In words: Total cell kill assay (MTT), leukemic cell line. Particulars: PTK787 in different concentrations. Type of series: cell-based. As for the experimental part: as §3
In another series the test system is K562 cells. As to the kind of experiment: Total cell kill assay (MTT), leukemic cell line. Type of series: cell-based. The settings on record: PTK787 in different concentrations.
The test system of series [5] is primary AML cells of pediatric AML patients. As to the kind of experiment: Patient leukemic cell survival counted by trypan blue exclusion. Type of series: cell-based, human. As for the experimental part: as §1, §2
Correlations are calculated using the Spearman rank correlation coefficient (rho). A paired sample non-parametric test (Wilcoxon Signed Ranks test) is used to analyze the paired viable cells (with or without VEGF, as well as with or without PTK787). A significant difference is defined as a P-value <0.05.

The subject of series [6] is A431 epidermoid, Ls174T colon, HT-29 colon, PC-3 prostate carcinoma. The settings on record: HT-29, PC-3 carcinomas; cited from earlier work.
Setting [7] is: Homo sapiens, read-out: LC50 value, Patient No. 1, drug alone.
Setting [8] is: Homo sapiens, read-out: LC50 value, Patient No. 1, with PTK787 5 nM.
Where [9] appears, read: Homo sapiens, read-out: LC50 value, Patient No. 1, with PTK787 10 nM.
The mark [10] stands for this setting: Homo sapiens, read-out: LC50 value, Patient No. 1, with PTK787 25 nM.
Where [11] appears, read: Homo sapiens, read-out: LC50 value, Patient No. 2, drug alone.
Setting [12] is: Homo sapiens, read-out: LC50 value, Patient No. 2, with PTK787 5 nM.
[13] abbreviates: Homo sapiens, read-out: LC50 value, Patient No. 3, drug alone.
[14] abbreviates: Homo sapiens, read-out: LC50 value, Patient No. 3, with PTK787 5 nM.
The mark [15] stands for this setting: Homo sapiens, read-out: LC50 value, Patient No. 4, drug alone.
Where [16] appears, read: Homo sapiens, read-out: LC50 value, Patient No. 4, with PTK787 5 nM.
Where [17] appears, read: Homo sapiens, read-out: LC50 value, Patient No. 5, drug alone.
The mark [18] stands for this setting: Homo sapiens, read-out: LC50 value, Patient No. 5, with PTK787 5 nM.
Where [19] appears, read: PTK787 (25 nM) plus exogenous VEGF165.

The values below come from patent publication US20100261726A1, “TREATMENT OF AML” (priority 2002, published 2010).

Structures are written as SMILES. Like-named read-outs stand apart in the source and are kept apart here.

Consider `Nc1ccn([C@@H]2O[C@H](CO)[C@@H](O)[C@@H]2O)c(=O)n1` [Cytarabine, cytarabine], for which the CC50 in series [1] (setting [7]) came out at 400 µg/mL; in series [1] (setting [8]) it was 260 µg/mL; in series [1] (setting [9]), 250 µg/mL; in series [1] (setting [10]) it was 35 µg/mL; in series [1] (setting [11]) it was 5 µg/mL; in series [1] (setting [12]), 0.6 µg/mL. In addition, the CC50 in series [1] (setting [13]) is 4.7 µg/mL; in series [1] (setting [14]), 0.23 µg/mL; in series [1] (setting [15]), 1500 µg/mL; in series [1] (setting [16]), 560 µg/mL; in series [1] (Homo sapiens, read-out: LC50 value, Patient No. 4, with PTK787 10 nM), 10 µg/mL; in series [1] (Homo sapiens, read-out: LC50 value, Patient No. 4, with PTK787 25 nM) it was 0.2 µg/mL. In addition, the figures for the CC50 in series [1] (setting [17]) and in series [1] (setting [18]) were 3 µg/mL and 0.24 µg/mL, respectively.
With `O=C1c2c(O)ccc(O)c2C(=O)c2c(NCCNCCO)ccc(NCCNCCO)c21` [Mitoxantrone, mitoxantrone], the CC50 worked out at 0.23 µg/mL in series [1] (setting [7]); 0.16 µg/mL in series [1] (setting [8]); 0.19 µg/mL in series [1] (setting [9]); 0.03 µg/mL in series [1] (setting [10]); 0.0175 µg/mL in series [1] (setting [11]); 6.1e-05 µg/mL in series [1] (setting [12]). For the same compound, the CC50 in series [1] (setting [13]) is 0.043 µg/mL; in series [1] (setting [14]), 0.0004 µg/mL; in series [1] (setting [15]) it was 0.054 µg/mL; in series [1] (setting [16]), 2.3e-05 µg/mL; in series [1] (setting [17]), 0.0186 µg/mL; in series [1] (setting [18]), 6.1e-05 µg/mL. Besides, the CC50 in series [1] (Homo sapiens, read-out: LC50 value, Patient No. 5, with PTK787 10 nM) came to 8e-07 µg/mL.
Take `Clc1ccc(Nc2nnc(Cc3ccncc3)c3ccccc23)cc1` [PTK787]: the TF-1 cell survival with TF-1 cells [2] (25 nM PTK787, 24 hours) amounted to 21.9%. The “effect of PTK787 on cell survival on addition of rec VEGF” value in the series on TF-1 cells [2] (25 and 50 nM PTK787 plus rec VEGF, TF-1 cells) was “can be blocked”. The “apoptosis (fraction of apoptotic cells)” value in the series on TF-1 cells [3] is “up to 12%”. Moreover, the leukemic cell survival result with HL-60 cells is “up to 1%”; in the series on TF-1 cells [4] it was “up to 10%”; in the series on K562 cells, “no decrease at all”. Besides, the “decrease in cell survival, median” value in series [5] (setting [19]) is 15%. In addition, the “decrease in cell survival, range over patients” value in series [5] (setting [19]) was 0%-35.5%; in series [5] (PTK787 alone (25 nM)) it was 28.2%-75.4%. In series [5] (PTK787 alone (25 nM), patient samples, p-value 0.043), the “decrease in cell survival (cell death), median” value is reported as 55.1%. The CC50 in series [1] (Patient No. 1, 72 hours, read-out: LC50 value) is above 25 nM; in series [1] (Patient No. 2, 72 hours, read-out: LC50 value), 7.3 nM; in series [1] (Patient No. 3, 72 hours, read-out: LC50 value), 5.8 nM; in series [1] (Patient No. 4, 72 hours, read-out: LC50 value), 25 nM; in series [1] (Patient No. 5, 72 hours, read-out: LC50 value), 7.7 nM; in series [1] (Patient No. 6, 72 hours, read-out: LC50 value) it was 14.5 nM. Further, the “growth of human carcinomas transplanted orthotopically into mice” value in series [6] is on record as “inhibits the growth”. For the same compound, the “vessel density in the tumor tissues” value in series [6] is given as “does reduce vessel density”.
